The target in assay [1] is Geranylgeranyl transferase type I (Homo sapiens, UniProt P49354+P53609). Put plainly: Inhibition of geranylgeranyl transferase I (GGTase-I). The class given is protein-complex assay.
Assay [2] addresses Protein farnesyltransferase (Homo sapiens, UniProt P49354+P49356). As to the kind of experiment: Inhibition of [3H]FPP incorporation into recombinant Ha-Ras by bovine brain farnesyltransferase. The class given is functional, Bos taurus.
The subject of assay [3] is Rat1. Put plainly: Minimal cytotoxic effect (<10%) in RAT1 cell viability assay. The class given is functional, Rattus norvegicus.
The subject of the next assay is NIH3T3. Put plainly: Inhibition of the post-translational prenylation of Ha-Ras protein in cultured NIH3T3 cells in a protein processing assay. To be noted: Mus musculus. The class given is functional, cell-based.
Assay [4] relates to Rat1. Put plainly: Inhibition of v-raf (Raf1a1) transformed RAT1 cell colony size and number in soft agar assay. The class given is functional. To be noted: Rattus norvegicus.
Assay [5] has as its system Rat1. As to the kind of experiment: Inhibition of v-Ha-ras (Ras2B) transformed RAT1 cell colony size and number in soft agar assay. The class given is functional. To be noted: Rattus norvegicus.

Values after ≈ are worked out from the molar mass of the structure shown.

On to `CSCC[C@H](NC(=O)c1cccc(CN(Cc2ccc(C#N)cc2)Cc2cnc[nH]2)c1)C(=O)O`, for which the half-maximal inhibitory concentration (IC50) is 6.2 µM in assay [1] and 0.012 µM in assay [2].
Molecule `COC(=O)[C@H](CCSC)NC(=O)c1cccc(CN(Cc2ccc(C#N)cc2)Cc2cncn2Cc2ccc(C#N)cc2)c1` had a CTE with Rat1 [3] of 25 µM. The same molecule had an IC50 with NIH3T3 of approximately 5 µM. For the same molecule, the MIC in the assay with Rat1 [4] is more than 10 µM; against Rat1 [5], not above 1 µM.
With `CSCC[C@H](NC(=O)c1cccc(CN(Cc2cnc[nH]2)Cc2cnc[nH]2)c1)C(=O)O`, the IC50 in assay [1] worked out at 17 µM; in assay [2] it was 0.87 µM.
`CCCCN(Cc1cccc(C(=O)N[C@@H](CCSC)C(=O)OC)c1)Cc1cncn1Cc1ccc(C#N)cc1` came in with a CTE with Rat1 [3] of 25 µM. The MIC in the assay on Rat1 [4] and against Rat1 [5] was more than 10 µM in each case.
Consider `COC(=O)[C@H](CCSC)NC(=O)c1cccc(CN(Cc2ccc(C#N)cc2)Cc2c[nH]cn2)c1`, for which, in the assay on Rat1 [3], the CTE entry is on record as “>=50 uM”. The MIC is more than 10 µM with Rat1 [4] and 10 µM (≈ 4.92 µg/mL) in the assay with Rat1 [5].
Take `COC(=O)[C@H](CCSC)NC(=O)c1cccc(CNCc2cncn2Cc2ccc(C#N)cc2)c1`: in the assay with Rat1 [3], the CTE was found to be 25 µM. Moreover, the minimal inhibitory concentration (MIC) with Rat1 [4] was more than 10 µM; with Rat1 [5], 10 µM (≈ 4.92 µg/mL).

As a reminder, the IC50 is the concentration at which inhibition is half-maximal. The MIC is the least concentration at which growth counts as inhibited.

For the origin of these results see ChEMBL document CHEMBL1132268, “Non-thiol 3-aminomethylbenzamide inhibitors of farnesyl-protein transferase” (Bioorg Med Chem Lett, 1999).
